Data taken from patent US10092523B2, “Long acting pharmaceutical compositions” (priority 2014, dated 2018).
≈ marks a conversion by molar mass, not a printed value.

Columns and labels:
HIV [1] = assay: human protein adjusted IC90; format: cell-based; conditions: Human immunodeficiency virus 1; reference line in FIG. 1 and FIG. 2
HIV [2] = conditions: cited from earlier work

## CC(C)C1=C2[C@H]3CC[C@@H]4[C@@]5(C)CC[C@H](OC(=O)CC(C)(C)C(=O)O)C(C)(C)[C@@H]5CC[C@@]4(C)[C@]3(C)CC[C@@]2([C@@H](O)CN(CCN(C)C)Cc2ccc(Cl)cc2)CC1=O [first compound, 4-(((3aR,5aR,5bR,7aR,9S,11aR,11bR,13aS)-3a-((R)-2-((4-Chlorobenzyl)(2-(dimethylamino)ethyl)amino)-1-hydroxyethyl)-1-isopropyl-5a,5b,8,8,11a-pentamethyl-2-oxo-3,3a,4,5,5a,5b, 6,7,7a,8,9,10,11,11a,11b,12,13,13a-octadecahydro-2H-cyclopenta[a]chrysen-9-yl)oxy)-2,2-dimethyl-4-oxobutanoic acid]
HIV [1]
  IC90: 4.31 ng/mL (≈ 5.32 nM)

## C=C(C)[C@@H]1CC[C@]2(C(=O)O)CC[C@]3(C)[C@H](CC[C@@H]4[C@@]5(C)CC[C@H](OC(=O)CC(C)(C)C(=O)O)C(C)(C)[C@@H]5CC[C@]43C)[C@@H]12 [Bevirimat]
HIV [2]; patients with trough levels >=20 μg/mL and without key baseline Gag polymorphisms at Q369, V370 or T371
  reduced HIV viral load by a mean of: 1.3 log10/mL
HIV [2]; users with Gag polymorphisms at Q369, V370 or T371
  HIV viral load reduction versus patients without Gag polymorphisms: significantly lower load reductions
